Experiments:
[1] = target: T1, human CXCR3A (Homo sapiens, UniProt P49682); assay: FLIPR assay (CXCL10-induced calcium signal in CHO-K1 cells); format: cell-based; details: CHO-K1 cells expressing human CXCR3A coupled to Galpha(16); CXCL10 agonist 20 nM; mean values
T1 construct: expressed in transfected cells; host or cells: CHO-K1
T1 sequence (P49682 1-368): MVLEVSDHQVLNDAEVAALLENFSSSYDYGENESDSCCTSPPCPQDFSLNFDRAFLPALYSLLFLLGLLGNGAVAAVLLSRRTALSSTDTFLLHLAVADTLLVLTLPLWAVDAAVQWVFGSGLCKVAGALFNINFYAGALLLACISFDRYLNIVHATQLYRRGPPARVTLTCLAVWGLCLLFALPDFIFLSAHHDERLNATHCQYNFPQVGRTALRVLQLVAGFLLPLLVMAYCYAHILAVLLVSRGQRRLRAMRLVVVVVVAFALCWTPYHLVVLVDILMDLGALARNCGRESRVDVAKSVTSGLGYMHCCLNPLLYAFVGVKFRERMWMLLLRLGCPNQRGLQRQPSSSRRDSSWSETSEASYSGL
Procedure: A) FLIPR assay: The bioactivity of compounds is tested in a fluorometric imaging plate reader (FLIPR: Molecular Devices) using engineered CHO-K1 cells expressing the human CXCR3A (GenBank: AY242128) coupled to a G protein (Galpha(16)). Cells are plated the day prior to bioassay in F12 medium supplemented with 10% FBS and G418 and hygromycin antibiotics to maintain recombinant selection. […] Cells are washed free of excess dye and 60 microliter of wash buffer is added. Stock solutions of test compounds are made up at a concentration of 10 mM in DMSO, and serially diluted in dilution buffer to concentrations required for inhibition dose response curves. After a 10 minute incubation period at 37° C., 10 microliters of each compound dilution are transferred from a compound plate to the plate containing the recombinant cells in the FLIPR instrument according to the manufacturer's instructions. Following basal readings, 10 microliter CXCL10 agonist at a concentration of 20 nM (from Peprotech) is added, again using the FLIPR instrument. Changes in fluorescence are monitored before and after addition of the test compounds. Emission peak values above base level after CXCL10 addition are exported after base line subtraction. The program XLfit is used to fit the data to a single site dose response curve and to calculate IC50 values. The calculated IC50 values may fluctuate depending on the daily assay performance. Fluctuations of this kind are known to those skilled in the art.

[2] = target: T2, hERG K channel (Homo sapiens, UniProt Q12809); assay: hERG Q-Patch assay; format: cell-based; details: CHO cells expressing hERG, K+ tail current 3 min after application, mean of two or three experiments
T2 construct: host or cells: CHO
Procedure: B) hERG Q-Patch assay: Compounds are evaluated for block of the hERG K channel using CHO cells stably expressing the hERG gene (accession number U04270, bSys, Witterswil. Switzerland) and the Patch robotic platform (Sophion, Ballerup, Denmark) in single-cell mode at room temperature. […] When the cells are ˜80% confluent (every 2-3 days), they are either split for further culture or used for electrophysiology. […] Cells are kept in suspension medium at 32-35° C. in the QPatch robot until use, at which time aliquots are transferred to the extracellular solution (in mM: NaCl 150; KCl 4; CaCl2 1.2; MgCl2 1; HEPES 10; pH 7.4 with NaOH) containing 0.3% v/v DMSO and applied to the test plates. K^+ currents are measured with the patch-voltage-clamp technique in the whole-cell configuration with the internal solution (in […]: KCl, 140; NaCl, 10; MgCl2, 1; HEPES, 10; EGTA, 5; pH=7.2 with KOH). […] K^+tail currents are produced from a holding voltage of −80 mV by a 500-ms depolarization to +20 mV followed by a 500-ms repolarization to −40 mV; tail current amplitudes are measured at the end of the repolarization to −40 mV. The pulse pattern is repeated every 10 sec during the experiment, baseline K^+ current is measured after 3 min in extracellular solution, test-solution containing compound is then applied, and K^+ current in presence of compound is measured 3 minutes after application to the cells.

T2 sequence (Q12809 whole entry): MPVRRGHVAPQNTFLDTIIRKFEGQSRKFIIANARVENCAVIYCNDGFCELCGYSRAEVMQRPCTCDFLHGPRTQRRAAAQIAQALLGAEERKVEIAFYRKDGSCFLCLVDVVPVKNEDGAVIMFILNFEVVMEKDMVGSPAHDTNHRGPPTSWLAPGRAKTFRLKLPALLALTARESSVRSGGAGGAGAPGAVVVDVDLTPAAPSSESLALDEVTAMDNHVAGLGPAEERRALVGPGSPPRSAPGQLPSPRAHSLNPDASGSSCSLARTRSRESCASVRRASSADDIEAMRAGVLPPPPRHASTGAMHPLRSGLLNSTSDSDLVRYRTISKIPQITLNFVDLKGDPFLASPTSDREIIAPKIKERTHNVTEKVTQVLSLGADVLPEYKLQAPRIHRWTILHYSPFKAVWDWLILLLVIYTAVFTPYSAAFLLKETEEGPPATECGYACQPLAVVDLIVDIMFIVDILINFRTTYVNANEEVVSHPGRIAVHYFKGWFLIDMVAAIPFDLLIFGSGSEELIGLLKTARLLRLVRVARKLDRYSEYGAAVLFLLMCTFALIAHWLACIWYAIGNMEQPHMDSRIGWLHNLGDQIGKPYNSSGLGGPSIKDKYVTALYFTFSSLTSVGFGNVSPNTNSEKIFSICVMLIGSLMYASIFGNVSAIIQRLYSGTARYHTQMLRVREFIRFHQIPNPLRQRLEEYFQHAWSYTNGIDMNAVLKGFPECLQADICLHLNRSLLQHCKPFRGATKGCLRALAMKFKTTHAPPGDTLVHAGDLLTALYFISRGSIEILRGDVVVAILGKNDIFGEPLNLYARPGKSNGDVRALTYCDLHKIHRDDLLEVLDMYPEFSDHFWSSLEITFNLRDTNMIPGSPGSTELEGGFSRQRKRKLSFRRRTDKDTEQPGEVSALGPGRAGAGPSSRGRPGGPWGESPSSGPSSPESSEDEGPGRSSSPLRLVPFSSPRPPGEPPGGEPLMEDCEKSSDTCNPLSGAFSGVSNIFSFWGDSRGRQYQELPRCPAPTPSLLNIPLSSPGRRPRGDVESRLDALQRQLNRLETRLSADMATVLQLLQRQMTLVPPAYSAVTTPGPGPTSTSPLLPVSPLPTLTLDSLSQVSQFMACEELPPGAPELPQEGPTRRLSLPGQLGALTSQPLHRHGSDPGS

IC50 [1] [nM]	Compound	% block ([2]; concentration 300 nM) [%]	% block ([2]; concentration 3000 nM) [%]
4.5	CCOc1ncc(-c2nc(C(F)(F)F)sc2N2CCN(C(=O)Cn3nc(C)nc3C)[C@H](C)C2)c(OCC)n1 [Example 29, 1-{(R)-4-[4-(2,4-Diethoxy-pyrimidin-5-yl)-2-trifluoromethyl-thiazol-5-yl]-2-methyl-piperazin-1-yl}-2-(3,5-dimethyl-[1,2,4]triazol-1-yl)-ethanone]	−2	0
45	COc1ccc(-c2nc(C(F)(F)F)sc2N2CCN(C(=O)Cn3nc(C)nc3C)[C@H](C)C2)c(F)c1 [Example 11, 2-(3,5-Dimethyl-[1,2,4]triazol-1-yl)-1-{(R)-4-[4-(2-fluoro-4-methoxy-phenyl)-2-trifluoromethyl-thiazol-5-yl]-2-methyl-piperazin-1-yl}-ethanone]	10	19
25	COc1ccc(-c2nc(C(F)(F)F)sc2N2CCN(C(=O)Cn3nc(C)nc3C)[C@H](C)C2)cc1C [Example 12, 2-(3,5-Dimethyl-[1,2,4]triazol-1-yl)-1-{(R)-4-[4-(4-methoxy-3-methyl-phenyl)-2-trifluoromethyl-thiazol-5-yl]-2-methyl-piperazin-1-yl}-ethanone]	6	27
4.8	Cc1nc(C)n(CC(=O)N2CCN(c3sc(C(F)(F)F)nc3-c3cnc(N4CCN(C)CC4)nc3)C[C@H]2C)n1 [Example 37, 2-(3,5-Dimethyl-[1,2,4]triazol-1-yl)-1-((R)-2-methyl-4-{4-[2-(4-methyl-piperazin-1-yl)-pyrimidin-5-yl]-2-trifluoromethyl-thiazol-5-yl}-piperazin-1-yl)-ethanone]	2	4
	Cc1ncc(-c2nc(C(F)(F)F)sc2N2CCN(C(=O)Cn3nc(C)nc3C)[C@H](C)C2)cn1 [Example 23, 2-(3,5-Dimethyl-[1,2,4]triazol-1-yl)-1-{(R)-2-methyl-4-[4-(2-methyl-pyrimidin-5-yl)-2-trifluoromethyl-thiazol-5-yl]-piperazin-1-yl}-ethanone]	−1	−2
28	Cc1ccc(-c2nc(C(F)(F)F)sc2N2CCN(C(=O)Cn3nc(C)nc3C)[C@H](C)C2)cc1 [Example 8, 2-(3,5-Dimethyl-[1,2,4]triazol-1-yl)-1-[(R)-2-methyl-4-(4-p-tolyl-2-trifluoromethyl-thiazol-5-yl)-piperazin-1-yl]-ethanone]	22	61
	COc1ncc(-c2nc(C(F)(F)F)sc2N2CCN(C(=O)Cn3nc(C)nc3C)[C@H](C)C2)cn1 [Example 32, 2-(3,5-Dimethyl-[1,2,4]triazol-1-yl)-1-{(R)-4-[4-(2-methoxy-pyrimidin-5-yl)-2-trifluoromethyl-thiazol-5-yl]-2-methyl-piperazin-1-yl}-ethanone]	−6	−5
91	Cc1nc(C)n(CC(=O)N2CCN(c3sc(C(F)(F)F)nc3-c3cnc(CCN(C)C)nc3)C[C@H]2C)n1 [Example 42, 1-((R)-4-{4-[2-(2-Dimethylamino-ethyl)-pyrimidin-5-yl]-2-trifluoromethyl-thiazol-5-yl}-2-methyl-piperazin-1-yl)-2-(3,5-dimethyl-[1,2,4]triazol-1-yl)-ethanone]	−3	0
4.5	Cc1nc(C)n(CC(=O)N2CCN(c3sc(C(F)(F)F)nc3-c3cnc(C(C)(F)F)nc3)C[C@H]2C)n1 [Example 52, 1-((R)-4-{4-[2-(1,1-Difluoro-ethyl)-pyrimidin-5-yl]-2-trifluoromethyl-thiazol-5-yl}-2-methyl-piperazin-1-yl)-2-(3,5-dimethyl-[1,2,4]triazol-1-yl)-ethanone]	2	6
8.5	CCOc1ncc(-c2nc(C(F)(F)F)sc2N2CCN(C(=O)Cn3nc(C)nc3CC)[C@H](C)C2)cn1 (single isomer, unassigned) [Example 19]	4	12
76	Cc1nc(C)n(CC(=O)N2CCN(c3sc(C(F)(F)F)nc3-c3ccc4c(c3)OCO4)C[C@H]2C)n1 [Example 13, 1-[(R)-4-(4-Benzo[1,3]dioxol-5-yl-2-trifluoromethyl-thiazol-5-yl)-2-methyl-piperazin-1-yl]-2-(3,5-dimethyl-[1,2,4]triazol-1-yl)-ethanone]	9	39
4.7	Cc1nc(C)n(CC(=O)N2CCN(c3sc(C(F)(F)F)nc3-c3ccc4c(c3)CCCO4)C[C@H]2C)n1 [Example 21, 1-[(R)-4-(4-Chroman-6-yl-2-trifluoromethyl-thiazol-5-yl)-2-methyl-piperazin-1-yl]-2-(3,5-dimethyl-[1,2,4]triazol-1-yl)-ethanone]	1	12
6.8	COCCOc1ncc(-c2nc(C(F)(F)F)sc2N2CCN(C(=O)Cn3nc(C)nc3C)[C@H](C)C2)cn1 [Example 25, 2-(3,5-Dimethyl-[1,2,4]triazol-1-yl)-1-((R)-4-{4-[2-(2-methoxy-ethoxy)-pyrimidin-5-yl]-2-trifluoromethyl-thiazol-5-yl}-2-methyl-piperazin-1-yl)-ethanone]	−1	1
22	Cc1nc(C)n(CC(=O)N2CCN(c3sc(C(F)(F)F)nc3-c3ccc4c(c3)CCO4)C[C@H]2C)n1 [Example 40, 1-{(R)-4-[4-(2,3-Dihydro-benzofuran-5-yl)-2-trifluoromethyl-thiazol-5-yl]-2-methyl-piperazin-1-yl}-2-(3,5-dimethyl-[1,2,4]triazol-1-yl)-ethanone]	1	25
5.6	[2H]C([2H])(C(=O)N1CCN(c2sc(C(F)(F)F)nc2-c2cnc(OCC)nc2)C[C@H]1C)n1nc(C)nc1C [Example 41, 2-(3,5-Dimethyl-[1,2,4]triazol-1-yl)-1-{(R)-4-[4-(2-ethoxy-pyrimidin-5-yl)-2-trifluoromethyl-thiazol-5-yl]-2-methyl-piperazin-1-yl}-2,2-dideuterium-ethanone]		
	CCc1ncc(-c2nc(C(F)(F)F)sc2N2CCN(C(=O)Cn3nc(C)nc3C)[C@H](C)C2)cn1 [Example 43, 2-(3,5-Dimethyl-[1,2,4]triazol-1-yl)-1-{(R)-4-[4-(2-ethyl-pyrimidin-5-yl)-2-trifluoromethyl-thiazol-5-yl]-2-methyl-piperazin-1-yl}-ethanone]	4	8
24	Cc1nc(C)n(CC(=O)N2CCN(c3sc(C(F)(F)F)nc3-c3ccc(C#N)cc3)C[C@H]2C)n1 [Example 5, 4-(5-{(R)-4-[2-(3,5-Dimethyl-[1,2,4]triazol-1-yl)-acetyl]-3-methyl-piperazin-1-yl}-2-trifluoromethyl-thiazol-4-yl)-benzonitrile]		
	COc1ccc(-c2nc(C(F)(F)F)sc2N2CCN(C(=O)Cn3nc(C)nc3C)[C@H](C)C2)cn1 [Example 16, 2-(3,5-Dimethyl-[1,2,4]triazol-1-yl)-1-{(R)-4-[4-(6-methoxy-pyridin-3-yl)-2-trifluoromethyl-thiazol-5-yl]-2-methyl-piperazin-1-yl}-ethanone]	4	14
